The first test deals with human RIP1 kinase domain (2-375) (Homo sapiens (Human), UniProt Q13546). Put plainly: RIP1 kinase inhibition assay (biochemical, Transcreener ADP assay). Particulars: RIP1 Ki, tight-binding apparent inhibition constant (Ki app, Morrison equation); 50 nM enzyme, 50 uM ATP, 2 hours incubation, fluorescence polarization. The protocol:
Example 45: RIP1 Kinase Inhibition Assays (Biochemical Assay)
The compounds of the present invention were tested for their capacity to inhibit RIP1K activity as described below.
The ability of the receptor interacting protein kinase (RIPK1) to catalyze the hydrolysis of adenosine-5′-triphosphate (ATP) is monitored using the Transcreener ADP (adenosine-5′-diphosphate) assay (BellBrook Labs). Purified human RIP1 kinase domain (2-375) (50 nM) derived from a baculovirus-infected insect cell expression system is incubated with test compounds for 2 hours in 50 mM Hepes buffer (pH 7.5) containing 30 mM MgCl2, 1 mM dithiothreitol, 50 uM ATP, 0.002% Brij-35, and 0.5% dimethyl sulfoxide (DMSO). Reactions are quenched by the addition of 1× Bell Brooks Stop buffer B (20 mM Hepes (ph 7.5), 40 mM ethylenediaminetetraacetic acid and 0.02% Brij-35) containing an additional 12 mM EDTA and 55 ug/mL ADP2 antibody and 4 nM ADP-AlexaFluor® 633 tracer. The tracer bound to the antibody is displaced by the ADP generated during the RIP1K reaction, which causes a decrease in fluorescence polarization that is measured by laser excitation at 633 nm with a FP microplate reader M1000. Fractional activity was plotted against test article concentration. Using Genedata Screener software (Genedata; Basel, Switzerland), the data were fit to the tight-binding apparent inhibition constant (Ki^app) Morrison equation [Williams, J. W. and Morrison, J. F. (1979) The kinetics of reversible tight-binding inhibition. Methods Enzymol 63: 437-67]. The following equation was used to calculate fractional activity and Ki^app: […]
where [E]T and [I]T are the total concentrations of active enzyme and test article, respectively. […]
human RIP1 kinase domain (2-375), sequence (Q13546 2-375): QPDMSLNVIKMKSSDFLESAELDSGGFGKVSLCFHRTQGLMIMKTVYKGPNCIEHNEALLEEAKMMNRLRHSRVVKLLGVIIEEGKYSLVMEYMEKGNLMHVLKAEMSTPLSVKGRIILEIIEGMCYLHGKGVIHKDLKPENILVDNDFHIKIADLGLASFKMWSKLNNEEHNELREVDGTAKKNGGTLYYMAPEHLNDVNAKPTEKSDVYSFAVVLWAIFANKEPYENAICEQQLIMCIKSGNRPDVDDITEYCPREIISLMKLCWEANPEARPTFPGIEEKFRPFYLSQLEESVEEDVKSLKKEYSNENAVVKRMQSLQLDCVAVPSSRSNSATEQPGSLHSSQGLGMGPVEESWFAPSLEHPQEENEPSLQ
For `CN1C(=O)[C@@H](NC(=O)c2nc3n(n2)[C@H](c2ccccc2)C[C@@H]3F)COc2ccccc21` (single isomer, unassigned) [Example #30], the Ki was 18 nM.
Still for that read-out and setting: the figure for `O=C(N[C@H]1CCc2cc(F)cc(F)c2NC1=O)c1nc2n(n1)[C@@H](c1ccccc1)C[C@@H]2F` (mixture of isomers) [Example #31, Rac-(5R,7S)-7-fluoro-5-phenyl-N-[(3S)-7,9-difluoro-2-oxo-1,3,4,5-tetrahydro-1-benzazepin-3-yl]-6,7-dihydro-5H-pyrrolo[1,2-b][1,2,4]triazole-2-carboxamide] is 15 nM; for `CN1C(=O)[C@@H](NC(=O)c2nc3n(n2)[C@@H](c2ccccc2)C[C@@H]3F)COc2ccccc21` (mixture of isomers) [Example #32, rac-(5R,7S)-7-fluoro-5-phenyl-N-[(3S)-5-methyl-4-oxo-2,3-dihydro-1,5-benzoxazepin-3-yl]-6,7-dihydro-5H-pyrrolo[1,2-b][1,2,4]triazole-2-carboxamide] it is 14 nM.

The same test, now with this note: tight-binding apparent inhibition constant (Ki app, Morrison equation); 50 nM enzyme, 50 uM ATP, 2 hours incubation, fluorescence polarization; read-out: RIP1 Ki.
With `CN1C(=O)[C@@H](NC(=O)c2nc3n(n2)[C@H](c2ccccc2)CC3)CCc2ncccc21` (single isomer, unassigned) [Example #18], the Ki came to 44 nM.
Still for that read-out and setting: the figure for `CN1C(=O)[C@@H](NC(=O)c2ncn(Cc3ccccc3)n2)CCn2nc(CC3CCOC3)cc21` (stereo partly drawn) [Example #19, 1-benzyl-N-[(6S)-4-methyl-5-oxo-2-(tetrahydrofuran-3-ylmethyl)-7,8-dihydro-6H-pyrazolo[1,5-a][1,3]diazepin-6-yl]-1,2,4-triazole-3-carboxamide] is 16 nM.
The same measure, in the same setting: the figure for `O=C(N[C@H]1CCc2cc(F)cc(F)c2NC1=O)c1cc2n(n1)CCOC2c1ccccc1` (stereo partly drawn) [Example #5, 4-phenyl-N-[(3S)-7,9-difluoro-2-oxo-1,3,4,5-tetrahydro-1-benzazepin-3-yl]-6,7-dihydro-4H-pyrazolo[5,1-c][1,4]oxazine-2-carboxamide] is 11 nM.
With `CN1C(=O)[C@@H](NC(=O)c2nc3n(n2)[C@@H](c2ccccc2F)CC3)CCc2ncccc21` (single isomer, unassigned) [Example #16], the Ki is 29 nM.
The same measure, in the same setting: the figure for `CN1C(=O)[C@@H](NC(=O)c2ncc3cnn(CC(C)(F)F)c3n2)COc2ccccc21` [Example #3, 1-(2,2-difluoropropyl)-N-[(3S)-5-methyl-4-oxo-2,3-dihydro-1,5-benzoxazepin-3-yl]pyrazolo[3,4-d]pyrimidine-6-carboxamide] is 35 nM; for `CN1C(=O)[C@@H](NC(=O)c2nc3n(n2)C(c2ccccc2)CC3F)COc2ccccc21` (stereo partly drawn) [Example #28, 7-fluoro-5-phenyl-N-[(3S)-5-methyl-4-oxo-2,3-dihydro-1,5-benzoxazepin-3-yl]-6,7-dihydro-5H-pyrrolo[1,2-b][1,2,4]triazole-2-carboxamide] it is 12 nM.
The same measure, in the same setting: the figure for `CN1C(=O)[C@@H](NC(=O)c2nc3n(n2)C(c2ccccc2)CC3(F)F)COc2ccccc21` (stereo partly drawn) [Example #25, 7,7-difluoro-5-phenyl-N-[(3S)-5-methyl-4-oxo-2,3-dihydro-1,5-benzoxazepin-3-yl]-5,6-dihydropyrrolo[1,2-b][1,2,4]triazole-2-carboxamide] is 33 nM; for `Cc1cc2n(n1)CC[C@H](NC(=O)c1nc3n(n1)CC[C@H]3c1ccccc1F)C(=O)N2C` (single isomer, unassigned) [Example #8] it is 18 nM; for `O=C(N[C@H]1CCc2cc(F)cc(F)c2NC1=O)c1nc2n(n1)C(c1ccccc1)CC2(F)F` (stereo partly drawn) [Example #24, 7,7-difluoro-5-phenyl-N-[(3S)-7,9-difluoro-2-oxo-1,3,4,5-tetrahydro-1-benzazepin-3-yl]-5,6-dihydropyrrolo[1,2-b][1,2,4]triazole-2-carboxamide] it is 22 nM.
Same read-out and setting: the same measure for `CN1C(=O)[C@@H](NC(=O)c2nc3n(n2)C(c2ccccc2)CC3F)CCn2nccc21` (stereo partly drawn) [Example #26, 7-fluoro-5-phenyl-N-[(6S)-4-methyl-5-oxo-7,8-dihydro-6H-pyrazolo[1,5-a][1,3]diazepin-6-yl]-6,7-dihydro-5H-pyrrolo[1,2-b][1,2,4]triazole-2-carboxamide]: 49 nM.

For the origin of these results see patent US11072607B2, “Inhibitors of RIP1 kinase and methods of use thereof” (priority 2016, dated 2021).
